Patent US9029383B2, “Methods of treatment of skin ulcers” (The Trustees Of The University of Pennsylvania, priority 2007, dated 2015)
Entries after “also recorded” stand apart in the source; their conditions may differ.

Tests used:
[1] = tested on: DM/HC pigs (skin abscess); experiment: Skin abscess occurrence in diabetic/hypercholesterolemic (DM/HC) pig model; assay type: in vivo; conditions: for Development of skin abscess over the treatment period: DM/HC pigs treated for 6 months; for Further or recurring abscess after initiation of daily inhibitor treatment in pigs that already had an abscess: pigs #948 and #963, daily single dose
Description: A diabetic/diabetic hypercholestrolemic pig model (DM/HC) was developed that mimics human-like diabetes and human-like atherosclerosis. Farm pigs weighing 25-30 kg and aged ˜4 months were made diabetic with a single intravenous injection of 125 mg/kg of streptozotocin (Sicor Pharmaceuticals, Irvine, Calif.). After stabilized for 1-2 weeks, the animals with elevated levels of plasma glucose (>150 mg/dl) were fed with atherogenic (high-fat) diet as shown in Table 1 (Animal Specialties, Quakertown, Pa.) to achieve a cholesterol level of approximately 250-800 mg/dl.
For the 0.5% cholesterol diet the components are similar with the exception of 0.5% cholesterol and 20% lard. The animals were Yorkshire pigs that were castrated males at the age of […] and were obtained from Archer Farms, Darlington, Md. These feeds were prepared by Animal Specialties and Provisions, LLC, Quakertown, Pa. USA.
On days 1-2, animals were fed normal chow, followed by on days 3-14 animals were fed a diet of 0.5% cholesterol, 2% lard and on day 14, cholesterol levels were measured and the diet adjusted accordingly to increase to 2% cholesterol, 10% lard if cholesterol is <300 mg/dl. Following induction of DM/HC, cholesterol was measured until cholesterol levels are stable between 300 and 800 mg/dl, and following cholesterol stabilization, cholesterol was measured monthly. If cholesterol levels were unstable following initial stabilization phase, the diet of the animal was returned to the initial two-week measurement schedule. Monthly cholesterol levels were determined, including levels of total cholesterol, LDL, HDL, VLDL and triglycerides.
(§1) At one month after stabilization of cholersterol at 250-800 mg/dl, the animals were randomized into two experimental groups, DM/HC (hyperglycemia and hypercholesterolemia) group with no treatment and treatment group (10 mg/kg/day of SB-480848, also referred to as 1-(N-(2-(diethylamino)ethyl)-N-(4-(4-trifluoromethylphenyl)benzyl)-aminocarbonylmethyl)-2-(4-fluorobenzyl)thio-5,6-trimethylenepyrimidin-4-one). The animals were then placed into two separate rooms with control animals in one room and treated animals in the other room in order to ensure that no drug would be found in the control animals. The animals were visually inspected twice daily, the visual inspections being between 8-10 hours apart, for skin abscess, especially in the leg and foot. To be considered an abscess, the minimal abscess size was 1 mm with redness in the surrounding area. When abscesses were detected, treatment was applied. Treatment comprise assessing the size and depth of abscess, draining and cleaning the abscess of dead tissue and cells, washing with Betadine, drying and bandaging with sterile dressing, and oral regime of antibiotics. Treatment was applied daily till the infection in the open sore was cleared (absence of pus) and the open sore healed by shrinkage in size and the opening was completely closed. Cultures of the abscess were carried out to determine the pathogen responsible for the infection. […]
Two diabetic/hypercholesterolemic groups were evaluated: 1. […] In addition blood cholesterol levels were maintained between 300 and 800 mg/dl in experimental animals, this range having been determined to provide a better test model. Blood cholesterol levels were monitored in all animals on a bimonthly basis, as shown in Table 4 and adjustments were made to the fat content of the feed accordingly, as shown in Table 2. […]

[2] = Body weight and behaviour of DM/HC pigs during the study period; assay type: in vivo, pig
Description: as §1

CCN(CC)CCN(Cc1ccc(-c2ccc(C(F)(F)F)cc2)cc1)C(=O)Cn1c(SCc2ccc(F)cc2)nc(=O)c2c1CCC2 [SB-480848, 1-(N-(2-(Diethylamino)ethyl)-N-(4-(4-trifluoromethylphenyl)benzyl)aminocarbonylmethyl)-2-(4-fluorobenzyl)thio-5,6-trimethylenepyrimidin-4-one]
Development of skin abscess over the treatment period [1]: no pig developed any skin abscesses
Development of skin abscess over the treatment period ([1]; listed as Lp-PLA2 inhibitor): no one developed any abscess
Further or recurring abscess after initiation of daily inhibitor treatment in pigs that already had an abscess [1]: No further abscess developed; also recorded: remained skin abscesses-free
Further or recurring abscess after initiation of daily inhibitor treatment in pigs that already had an abscess ([1]; listed as Lp-PLA2 inhibitor): No further abscess developed
Average healing time of treated abscesses ([1]; pigs #948 and #963 of the treated group, abscesses developed before start of inhibitor, standard wound care): 1-2 weeks
Responsiveness and activity compared to control animals ([2]; observed during the study period): more responsive to external stimuli
Weight ([2]; treated animals at end of study, from a baseline of 26.9 kg, control 50.9 kg from 30.3 kg): 62.5 kg
